Measurements from patent US11154514B2, “Quinic acid-modified nanoparticles and uses thereof” (Purdue Research Foundation, priority 2017, dated 2021).

What was measured:
E-selectin = molecular target: T1, E-selectin (Homo sapiens, UniProt P16581); assay: Competitive inhibition of QANP binding to activated HUVECs; type: cell-based; details: pre-incubated 30 minutes, flow cytometry
T1 construct: TNF-α treatment induces the expression of E-selectin on HUVECs; endogenous in cells
T1 sequence (P16581 22-610): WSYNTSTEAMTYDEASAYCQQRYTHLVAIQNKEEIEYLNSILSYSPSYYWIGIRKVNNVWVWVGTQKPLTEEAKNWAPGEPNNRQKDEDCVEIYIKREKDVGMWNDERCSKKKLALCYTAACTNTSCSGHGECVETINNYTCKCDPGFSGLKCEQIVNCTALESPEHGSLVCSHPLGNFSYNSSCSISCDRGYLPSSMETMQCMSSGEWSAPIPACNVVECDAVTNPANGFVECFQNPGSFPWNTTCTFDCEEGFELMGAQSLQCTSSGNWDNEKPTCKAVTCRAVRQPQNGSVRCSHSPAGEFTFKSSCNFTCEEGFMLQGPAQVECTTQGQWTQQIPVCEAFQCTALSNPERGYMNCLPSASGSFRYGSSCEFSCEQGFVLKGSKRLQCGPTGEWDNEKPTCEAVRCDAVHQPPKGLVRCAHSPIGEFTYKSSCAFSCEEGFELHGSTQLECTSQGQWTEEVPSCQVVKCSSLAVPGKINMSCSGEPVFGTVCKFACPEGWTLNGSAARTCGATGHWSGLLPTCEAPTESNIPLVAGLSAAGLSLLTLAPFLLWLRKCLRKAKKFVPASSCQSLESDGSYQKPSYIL
Protocol: For flow cytometry, HUVECs were treated with NPs in the same way as above and gently washed with PBS twice to remove free or loosely bound NPs. The cells were then trypsinized, collected by centrifugation at 930×g for 5 minutes, resuspended in 0.2 mL of PBS at 0° C., and analyzed with an Accuri C6 flow cytometer (BD Biosciences, San Jose, Calif., USA) equipped with an FL-1 detector (λex/λem=488/525 nm). For competition assay, known concentrations of free QA-NH2 or E-selectin antibody were pre-incubated with HUVECs for 30 minutes, prior to the NP treatment and flow cytometry.

[1] = tested on: subcutaneous MDA-MB-231 tumor xenografts; assay: In vivo whole body imaging and ex vivo organ distribution; design: species or system female athymic nude mice; details: tail vein, imaged over 24 hours
Protocol: All animal procedures were approved by the Purdue Animal Care and Use Committee, in compliance with the NIH guidelines for the care and use of laboratory animals. Female athymic nude mice ([…]) at the age of 6-7 weeks were purchased from Envigo (Indianapolis, Ind., USA) and acclimatized for 1 week prior to the procedure. Each mouse received 5×10^6 MDA-MB-231 cells in the flank of hind leg by subcutaneous injection. […] […] After 48 hours, mice were sacrificed, and tumors and major organs were retrieved and imaged with IVIS Lumina system. To quantify ICG content in each organ, tumor and major organs were homogenized in DMSO with a Tissue Master homogenizer (Omni International, Kennesaw, Ga., USA). The organ homogenates were centrifuged, and 0.1 mL supernatant was sampled from each homogenate and analyzed with the IVIS Lumina system.

| QANP binding to the activated HUVECs in presence of competitor (E-selectin) | Structure (SMILES) | tumor fluorescence (whole body imaging) [1] | whole body distribution and clearance [1] |
| --- | --- | --- | --- |
| reduced | Nc1cc(NC(=O)[C@]2(O)C[C@@H](O)[C@@H](O)[C@H](O)C2)cc(C(=O)O)c1 [QA-NH2, 3-amino-5-((1 S,3R,4S,5R)-1,3,4,5-tetrahydroxycyclohexane-1-carboxamido)benzoic Acid] | – | – |
| – | CC1(C)C(/C=C/C=C/C=C/C=C2\N(CCCCS(=O)(=O)O)c3ccc4ccccc4c3C2(C)C)=[N+](CCCCS(=O)(=O)[O-])c2ccc3ccccc3c21 [free ICG, indocyanine green] | did not show fluorescence in tumors at all time points | gradually cleared by hepatobiliary elimination |
